{
  "source": "ChEMBL document CHEMBL5154871",
  "about": "“Non-peptidyl non-covalent cathepsin C inhibitoEEr bearing a unique thiophene-substituted pyridine: Design, structure-activity relationship and anti-inflammatory activity in vivo” (Eur J Med Chem, 2022)",
  "key": {"Dipeptidyl peptidase 1 [1]": {"target": "T1, Dipeptidyl peptidase 1 (Homo sapiens, UniProt P53634)", "T1 sequence (P53634 25-134 limits assumed)": "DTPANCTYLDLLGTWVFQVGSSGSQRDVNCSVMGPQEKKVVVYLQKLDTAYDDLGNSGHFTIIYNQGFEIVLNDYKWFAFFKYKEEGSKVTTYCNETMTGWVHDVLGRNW", "T1 sequence (P53634 231-394 limits assumed)": "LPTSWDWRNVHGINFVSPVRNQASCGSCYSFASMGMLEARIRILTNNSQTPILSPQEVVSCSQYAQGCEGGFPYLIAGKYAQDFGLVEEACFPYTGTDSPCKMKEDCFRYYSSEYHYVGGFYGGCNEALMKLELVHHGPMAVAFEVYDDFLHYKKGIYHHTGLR", "T1 sequence (P53634 395-463 limits assumed)": "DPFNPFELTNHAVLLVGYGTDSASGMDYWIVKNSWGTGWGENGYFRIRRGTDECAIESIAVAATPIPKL", "assay": "Inhibition of human recombinant Cathepsin C using H-Gly-Arg-AMC as substrate pretreated for 30 mins followed by substrate addition and incubated for 60 mins by microplate reader assay"}, "Dipeptidyl peptidase 1 [2]": {"target": "T1, Dipeptidyl peptidase 1", "assay": "Inhibition of Cathepsin C in human THP-1 cells using H-Gly-Phe-AFC as substrate pretreated for 1 hr followed by substrate addition and incubated for 60 mins by microplate reader assay", "type": "cell-based"}, "Dipeptidyl peptidase 1 [3]": {"target": "T1, Dipeptidyl peptidase 1", "assay": "Inhibition of Cathepsin C in human U-937 cells using H-Gly-Phe-AFC as substrate pretreated for 1 hr followed by substrate addition and incubated for 60 mins by microplate reader assay", "type": "cell-based"}, "Dipeptidyl peptidase 1 [4]": {"target": "T1, Dipeptidyl peptidase 1", "assay": "Binding affinity to Cathepsin C in human U-937 cells assessed as increase in thermal stability at 10 uM measured from 46 to 52 degC after 4 hrs by cellular thermal shift assay", "type": "cell-based"}, "[5]": {"assay": "Acute toxicity in ICR mouse assessed as pathological changes of liver at 1500 mg/kg, po administered as single dose measured after 7 days by H and E staining based assay", "type": "organism-based", "conditions": "in vivo, time 7 day"}, "[6]": {"assay": "Acute toxicity in ICR mouse assessed as pathological changes of lungs at 1500 mg/kg, po administered as single dose measured after 7 days by H and E staining based assay", "type": "organism-based", "conditions": "in vivo, time 7 day"}, "[7]": {"assay": "Acute toxicity in ICR mouse assessed as pathological changes of heart at 1500 mg/kg, po administered as single dose measured after 7 days by H and E staining based assay", "type": "organism-based", "conditions": "in vivo, time 7 day"}, "[8]": {"assay": "Half life in Sprague-Dawley rat at 2 mg/kg, iv measured for 24 hrs by LC-MS/MS analysis", "type": "ADME, organism-based", "conditions": "in vivo"}, "[9]": {"assay": "Tmax in Sprague-Dawley rat at 10 mg/kg, po measured after 24 hrs by LC-MS/MS analysis", "type": "ADME, organism-based", "conditions": "in vivo"}, "[10]": {"assay": "MRT in Sprague-Dawley rat at 10 mg/kg, po measured after 24 hrs by LC-MS/MS analysis", "type": "ADME, organism-based", "conditions": "in vivo"}, "[11]": {"assay": "AUC(last) in Sprague-Dawley rat at 10 mg/kg, po measured after 24 hrs by LC-MS/MS analysis", "type": "ADME, organism-based", "design": "dose 10 mg/kg, time 24 hrs, route po", "conditions": "in vivo"}, "[12]": {"assay": "AUC(0 to infinity) in Sprague-Dawley rat at 10 mg/kg, po by LC-MS/MS analysis", "type": "ADME, organism-based", "design": "time infinity, dose 10 mg/kg, route po", "conditions": "in vivo"}, "[13]": {"target": "T2, Dipeptidyl peptidase 1 (Mus musculus) (UniProt P97821)", "T2 sequence (whole entry)": "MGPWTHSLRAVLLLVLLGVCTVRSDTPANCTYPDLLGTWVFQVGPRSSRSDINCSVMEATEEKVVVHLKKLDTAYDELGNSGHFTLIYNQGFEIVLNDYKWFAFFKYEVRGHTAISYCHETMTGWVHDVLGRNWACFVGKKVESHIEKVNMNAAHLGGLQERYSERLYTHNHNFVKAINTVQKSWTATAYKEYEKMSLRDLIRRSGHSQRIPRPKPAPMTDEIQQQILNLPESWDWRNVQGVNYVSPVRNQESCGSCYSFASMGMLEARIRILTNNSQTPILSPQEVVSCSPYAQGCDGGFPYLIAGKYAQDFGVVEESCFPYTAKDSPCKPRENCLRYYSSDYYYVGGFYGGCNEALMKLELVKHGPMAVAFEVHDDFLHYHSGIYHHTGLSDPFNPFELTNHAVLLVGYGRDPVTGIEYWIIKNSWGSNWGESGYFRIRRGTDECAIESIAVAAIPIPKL", "assay": "Inhibition of Cathepsin C in C57BL/6 mouse Bone marrow cells assessed as reduction of NSPs stability by measuring stability of protease 3 at 1 uM treated for 6 hrs by Western blotting analysis", "type": "cell-based", "design": "scale not given: the % may be the effect or the level left", "conditions": "Bone marrow cell"}, "[14]": {"target": "T2, Dipeptidyl peptidase 1 (Mus musculus)", "assay": "Inhibition of Cathepsin C in C57BL/6 mouse Bone marrow cells assessed as reduction of NSPs stability by measuring stability of neutrophil elastase at 1 uM treated for 6 hrs by Western blotting analysis", "type": "cell-based", "design": "scale not given: the % may be the effect or the level left", "conditions": "Bone marrow cell"}, "[15]": {"target": "T2, Dipeptidyl peptidase 1 (Mus musculus)", "assay": "Inhibition of Cathepsin C in C57BL/6 mouse Bone marrow cells assessed as reduction of NSPs stability by measuring stability of Cat G at 1 uM treated for 6 hrs by Western blotting analysis", "type": "cell-based", "design": "scale not given: the % may be the effect or the level left", "conditions": "Bone marrow cell"}, "[16]": {"target": "T2, Dipeptidyl peptidase 1 (Mus musculus)", "assay": "Inhibition of Cathepsin C in C57BL/6 mouse Bone marrow cells assessed as reduction of NSPs stability by measuring stability of cathepsin G at 1 uM treated for 48 hrs by Western blotting analysis", "type": "cell-based", "design": "scale not given: the % may be the effect or the level left", "conditions": "Bone marrow cell"}, "Mus musculus [17]": {"system": "Mus musculus", "assay": "Anti-inflammatory activity against LPS-induced ALI C57BL/6 mouse model assessed as decrease in pulmonary edema by measuring decrease in lung wet/dry ratio at 2 to 50 mg/kg, po treated 1 hr prior to LPS challenge and measured after 48 hrs", "type": "functional, organism-based", "conditions": "dose 2-50 mg/kg, time 49.0 hrs"}, "Mus musculus [18]": {"system": "Mus musculus", "assay": "Anti-inflammatory activity against po dosed LPS-induced ALI C57BL/6 mouse model assessed as decrease in TNF-alpha level in serum treated 1 hr prior to LPS challenge and measured after 48 hrs by ELISA", "type": "functional, organism-based", "conditions": "dose 2-50 mg/kg, time 49.0 hrs, DDE = dose-dependent effect"}, "[19]": {"target": "T2, Dipeptidyl peptidase 1 (Mus musculus)", "assay": "Inhibition of Cathepsin C in C57BL/6 mouse Bone marrow cells assessed as reduction of NSPs stability by measuring stability of protease 3 at 1 uM treated for 12 hrs by Western blotting analysis", "type": "cell-based", "design": "scale not given: the % may be the effect or the level left", "conditions": "Bone marrow cell"}, "[20]": {"target": "T2, Dipeptidyl peptidase 1 (Mus musculus)", "assay": "Inhibition of Cathepsin C in C57BL/6 mouse Bone marrow cells assessed as reduction of NSPs stability by measuring stability of cathepsin G at 1 uM treated for 12 hrs by Western blotting analysis", "type": "cell-based", "design": "scale not given: the % may be the effect or the level left", "conditions": "Bone marrow cell"}, "Mus musculus [21]": {"system": "Mus musculus", "assay": "Anti-inflammatory activity against LPS-induced ALI C57BL/6 mouse model assessed as increase in animal survival rate at 2 to 50 mg/kg, po treated 1 hr prior to LPS challenge and measured after 48 hrs", "type": "functional, organism-based", "conditions": "dose 2-50 mg/kg, time 49.0 hrs"}, "Mus musculus [22]": {"system": "Mus musculus", "assay": "In vivo inhibition of cathepsin C in blood of po dosed LPS-induced ALI C57BL/6 mouse model treated 1 hr prior to LPS challenge and measured after 48 hrs", "type": "functional, organism-based", "conditions": "dose 2-50 mg/kg, time 49.0 hrs, DDE = dose-dependent effect"}, "Mus musculus [23]": {"system": "Mus musculus", "assay": "In vivo inhibition of cathepsin C in po dosed LPS-induced ALI C57BL/6 mouse model assessed as downregulation of PR3 activity in bone marrow treated 1 hr prior to LPS challenge and measured after 48 hrs", "type": "functional, organism-based", "conditions": "dose 2-50 mg/kg, time 49.0 hrs, DDE = dose-dependent effect"}, "Mus musculus [24]": {"system": "Mus musculus", "assay": "In vivo inhibition of cathepsin C in po dosed LPS-induced ALI C57BL/6 mouse model assessed as downregulation of Cat G activity in bone marrow treated 1 hr prior to LPS challenge and measured after 48 hrs", "type": "functional, organism-based", "conditions": "dose 2-50 mg/kg, time 49.0 hrs, DDE = dose-dependent effect"}, "Mus musculus [25]": {"system": "Mus musculus", "assay": "Anti-inflammatory activity against po dosed LPS-induced ALI C57BL/6 mouse model assessed as increase in IL-10 level in lungs treated 1 hr prior to LPS challenge and measured after 48 hrs by ELISA", "type": "functional, organism-based", "conditions": "dose 2-50 mg/kg, time 49.0 hrs, DDE = dose-dependent effect"}},
  "note": "Activity calls are given as the source filed them. The calls are words filed in the database; no cut-off is given here.",
  "data": [
    {"smiles": "CC(=O)Nc1cccc(Nc2nc(Nc3ccc(-c4ccsc4)cn3)ncc2Cl)c1", "values": [
      {"measurement": "IC50", "setting": "Dipeptidyl peptidase 1 [1]", "result": 59.9, "unit": "nM"},
      {"measurement": "IC50", "setting": "Dipeptidyl peptidase 1 [2]", "result": 115, "unit": "nM"},
      {"measurement": "IC50", "setting": "Dipeptidyl peptidase 1 [3]", "result": 70.2, "unit": "nM"},
      {"measurement": "Activity", "setting": "Dipeptidyl peptidase 1 [4]", "result": "Active"},
      {"measurement": "Activity", "setting": "[5]", "result": "Non-Toxic"},
      {"measurement": "Activity", "setting": "[6]", "result": "Non-Toxic"},
      {"measurement": "Activity", "setting": "[7]", "result": "Non-Toxic"},
      {"measurement": "half-life", "setting": "[8]", "result": 150, "unit": "min"},
      {"measurement": "Tmax", "setting": "[9]", "result": 46.2, "unit": "min"},
      {"measurement": "MRT", "setting": "[10]", "result": 2.35, "unit": "h"},
      {"measurement": "AUC(0-t) at 24 h", "setting": "[11]", "result": 511, "unit": "ng·h/mL"},
      {"measurement": "AUC", "setting": "[12]", "result": 473.18, "unit": "µg·h/L"},
      {"measurement": "Activity", "setting": "[13]", "result": 95.6, "unit": "%"},
      {"measurement": "Activity", "setting": "[14]", "result": 93.5, "unit": "%"},
      {"measurement": "Activity", "setting": "[15]", "result": 93.4, "unit": "%"},
      {"measurement": "Activity", "setting": "[16]", "result": 50.1, "unit": "%"},
      {"measurement": "Activity", "setting": "Mus musculus [17]", "result": "Active"},
      {"measurement": "Activity", "setting": "Mus musculus [18]", "result": "Dde"},
      {"measurement": "Activity", "setting": "[19]", "result": 78.4, "unit": "%"},
      {"measurement": "Activity", "setting": "[20]", "result": 81.1, "unit": "%"},
      {"measurement": "Activity", "setting": "Mus musculus [21]", "result": "Active"},
      {"measurement": "inhibition", "setting": "Mus musculus [22]", "result": "Dde"},
      {"measurement": "inhibition", "setting": "Mus musculus [23]", "result": "Dde"},
      {"measurement": "inhibition", "setting": "Mus musculus [24]", "result": "Dde"},
      {"measurement": "Activity", "setting": "Mus musculus [25]", "result": "Dde"}
    ]}
  ]
}
